Key:
Trypanosoma cruzi [1] = assay: Trypanocidal activity against bloodstream trypomastigote stage of Trypanosoma cruzi Y after 24 hrs by Neubauer chamber method; type: functional
[2] = Cytotoxicity against human PBMC assessed as decrease in cell viability after 72 hrs by MTT assay; type: toxicity, cell-based; settings: PBMC (peripheral blood mononuclear cells)
[3] = Cytotoxicity against human PC3 cells assessed as decrease in cell viability after 72 hrs by MTT assay; type: functional, cell-based; settings: PC-3, 72 h
[4] = Cytotoxicity against human HCT116 cells assessed as decrease in cell viability after 72 hrs by MTT assay; type: functional, cell-based; settings: HCT-116, 72 h
[5] = Cytotoxicity against human HL60 cells assessed as decrease in cell viability after 72 hrs by MTT assay; type: functional, cell-based; settings: HL-60, 72 h
[6] = Cytotoxicity against human MDA-MB-435 cells assessed as decrease in cell viability after 72 hrs by MTT assay; type: functional, cell-based; settings: MDA-MB-435, 72 h
[7] = Cytotoxicity against human SF295 cells assessed as decrease in cell viability after 72 hrs by MTT assay; type: functional, cell-based; settings: SF-295, 72 h
Trypanosoma cruzi [8] = assay: Trypanocidal activity against bloodstream form of Trypanosoma cruzi after 24 hrs; type: functional
PC-3 = assay: Selectivity index, ratio of IC50 for human PBMC to IC50 for human PC3 cells
HCT-116 = assay: Selectivity index, ratio of IC50 for human PBMC to IC50 for human HCT116 cells
HL-60 = assay: Selectivity index, ratio of IC50 for human PBMC to IC50 for human HL60 cells
[9] = Selectivity index, ratio of IC50 for human PBMC to IC50 for human MDA-MB-435 cells
SF-295 = assay: Selectivity index, ratio of IC50 for human PBMC to IC50 for human SF295 cells

Row | Compound | IC50 (Trypanosoma cruzi [1]) | IC50 at 72 h [2] | IC50 [3] | IC50 [4] | IC50 [5] | IC50 [6] | IC50 [7] | IC50 (Trypanosoma cruzi [8]) | Ratio IC50 (PC-3) | Ratio IC50 (HCT-116) | Ratio IC50 (HL-60) | Ratio IC50 [9] | Ratio IC50 (SF-295)
1 | O=C1C(=O)c2ccccc2C2=C1CC(Cn1nncc1-c1ccccc1)O2 (configuration not stated) | > 1000 µM | 5.71 µM | 6.91 µM | 4.84 µM | 4.11 µM | 6.13 µM | 7.78 µM |  |  |  |  |  | 
2 | O=C1C(=O)c2ccccc2C2=C1CC(Cn1cc(C3(O)CCCCC3)nn1)O2 (configuration not stated) |  | > 13.2 µM | 12.4 µM | 12.7 µM | 11 µM | 10.2 µM | 11.1 µM | 89.5 µM |  |  |  |  | 
3 | CC1(C)OC2=C(C(=O)c3ccccc3C2=O)C1n1nncc1-c1ccccc1 (configuration not stated) | > 1000 µM | 7.57 µM | 3.07 µM | 2.5 µM | 2.55 µM | 3.71 µM | 2.8 µM |  |  |  |  |  | 
4 | O=C1C2=C(OC(Cn3nncc3-c3ccccc3)C2)C(=O)c2ccccc21 (configuration not stated) | > 1000 µM | > 14 µM | > 14 µM | 3.36 µM | 3.02 µM | > 14 µM | > 14 µM |  |  |  |  |  | 
5 | CC1(C)OC2=C(C(=O)C(=O)c3ccccc32)C1n1nncc1-c1ccccc1 (configuration not stated) | 113 µM | 2.02 µM | 1.34 µM | 1.37 µM | 1.48 µM | 1.75 µM | 2.37 µM |  | 1.5 |  |  |  | 
6 | CC1(C)CC(n2cc(-c3ccccc3)nn2)C2=C(O1)C(=O)c1ccccc1C2=O (configuration not stated) | > 1000 µM | > 13 µM | > 13 µM | 9.63 µM | 7.94 µM | > 13 µM | > 13 µM |  |  |  |  |  | 
7 | O=C1C2=C(OC(Cn3nnc(-c4ccccc4)c3I)C2)C(=O)c2ccccc21 (configuration not stated) | > 1000 µM | > 10.3 µM | > 10.3 µM | 6.04 µM | 5.4 µM | > 10.3 µM | > 10.3 µM |  |  |  |  |  | 
8 | O=C1C(=O)c2ccccc2C2=C1CC(Cn1nnc(-c3ccccc3)c1I)O2 (configuration not stated) | > 1000 µM | 3.68 µM | 2.17 µM | 4.16 µM | 2.38 µM | 5.65 µM | 3.68 µM |  |  |  |  |  | 
9 | CC1(C)CC(n2nnc(-c3ccccc3)c2I)C2=C(O1)C(=O)c1ccccc1C2=O (configuration not stated) | > 1000 µM | > 9.78 µM | > 9.78 µM | > 9.78 µM | > 9.78 µM | > 9.78 µM | > 9.78 µM |  |  |  |  |  | 
10 | O=C1C2=C(OC(Cn3cc(-c4ccccc4)nn3)C2)C(=O)c2ccccc21 (configuration not stated) | > 1000 µM | > 14 µM | > 14 µM | 8.7 µM | 7.95 µM | > 14 µM | > 14 µM |  |  |  |  |  | 
11 | O=C1C(=O)c2ccccc2C2=C1CC(Cn1cc(C3CCCCC3)nn1)O2 (configuration not stated) |  | 5.17 µM | 2.55 µM | 2.17 µM | 2.25 µM | 1.21 µM | 1.89 µM | 214 µM |  |  |  |  | 
12 | O=C1C(=O)c2ccccc2C2=C1CC(Cn1cc(C3=CCCCC3)nn1)O2 (configuration not stated) |  | 5.31 µM | 4.37 µM | 3.98 µM | 3.29 µM | 2.68 µM | 2.32 µM | 55.3 µM |  |  |  |  | 
13 | O=C1C(=O)c2ccccc2C2=C1CC(Cn1nnc(-c3ccccc3)c1-c1ccccc1)O2 (configuration not stated) | > 1000 µM | 2.16 µM | 1.29 µM | 1.68 µM | 1.15 µM | 1.17 µM | 1.43 µM |  |  |  |  |  | 
14 | CC1(C)OC2=C(C(=O)C(=O)c3ccccc32)[C@H](n2nnc(-c3ccccc3)c2I)[C@H]1Br | > 1000 µM | > 8.48 µM | > 8.48 µM | > 8.48 µM | > 8.48 µM | > 8.48 µM | > 8.48 µM |  |  |  |  |  | 
15 | CC1(C)CC(n2nncc2-c2ccccc2)C2=C(O1)C(=O)c1ccccc1C2=O (configuration not stated) | > 1000 µM | > 13 µM | > 13 µM | > 13 µM | > 13 µM | > 13 µM | > 13 µM |  |  |  |  |  | 
16 | CC1(C)OC2=C(C(=O)c3ccccc3C2=O)C1n1nnc(-c2ccccc2)c1I (configuration not stated) | > 1000 µM | 7.86 µM | 5.73 µM | 5.17 µM | 4.22 µM | 5.69 µM | 4.58 µM |  |  |  |  |  | 
17 | CCCCCCc1cn(CC2CC3=C(O2)c2ccccc2C(=O)C3=O)nn1 (configuration not stated) |  | 5.99 µM | 3.42 µM | 2.13 µM | 2.02 µM | 1.91 µM | 2.7 µM | 86.7 µM |  |  |  |  | 
18 | O=C1C(=O)c2ccccc2C2=C1CC(Cn1cc(-c3ccccc3)nn1)O2 (configuration not stated) | > 1000 µM | 3.24 µM | 2.07 µM | 2.4 µM | 3.55 µM | 3.08 µM | 3.24 µM |  |  |  |  |  | 
19 | CC1(C)OC2=C(C(=O)C(=O)c3ccccc32)[C@H](n2nncc2-c2ccccc2)[C@H]1Br | 125 µM | 1.23 µM | 0.41 µM | 0.47 µM | 0.66 µM | 0.77 µM | 1.59 µM |  | 0.8 - 3 | 0.8 - 3 | 0.8 - 3 | 0.8 - 3 | 0.8 - 3
20 | CC1(C)OC2=C(C(=O)C(=O)c3ccccc32)C1n1nnc(-c2ccccc2)c1I (configuration not stated) | > 1000 µM | 4.08 µM | 2.77 µM | 3.35 µM | 2.59 µM | 3.05 µM | 2.83 µM |  |  |  |  |  | 
21 | CC1(C)CCC2=C(O1)c1ccccc1C(=O)C2=O [LAPACHONE] | 392 µM |  |  |  |  |  |  |  |  |  |  |  | 

Source: ChEMBL document CHEMBL3861945 (Medchemcomm, 2016)
